Measurements taken from patent US12590099B2, “Inhibitors of histone deacetylase useful for the treatment or prevention of HIV infection” (Merck Sharp & Dohme LLC, priority 2018, dated 2026).

Legend:
[1] = target: T1, Recombinant human HDAC3/SMRT heterodimer (Homo sapiens, UniProt O15379); assay: Human HDAC enzyme inhibitor Fluor-de-Lys assay, HDAC3/SMRT; type: biochemical; conditions: recombinant human HDAC3/SMRT, Fluor-de-Lys assay
T1 construct: FLAG (C); made in house

[2] = target: T2, HDAC6 (Homo sapiens, UniProt Q9UBN7); assay: Human HDAC enzyme inhibitor Fluor-de-Lys assay, HDAC6; type: biochemical; conditions: HDAC6, Fluor-de-Lys assay
T2 sequence (Q9UBN7 1-1215): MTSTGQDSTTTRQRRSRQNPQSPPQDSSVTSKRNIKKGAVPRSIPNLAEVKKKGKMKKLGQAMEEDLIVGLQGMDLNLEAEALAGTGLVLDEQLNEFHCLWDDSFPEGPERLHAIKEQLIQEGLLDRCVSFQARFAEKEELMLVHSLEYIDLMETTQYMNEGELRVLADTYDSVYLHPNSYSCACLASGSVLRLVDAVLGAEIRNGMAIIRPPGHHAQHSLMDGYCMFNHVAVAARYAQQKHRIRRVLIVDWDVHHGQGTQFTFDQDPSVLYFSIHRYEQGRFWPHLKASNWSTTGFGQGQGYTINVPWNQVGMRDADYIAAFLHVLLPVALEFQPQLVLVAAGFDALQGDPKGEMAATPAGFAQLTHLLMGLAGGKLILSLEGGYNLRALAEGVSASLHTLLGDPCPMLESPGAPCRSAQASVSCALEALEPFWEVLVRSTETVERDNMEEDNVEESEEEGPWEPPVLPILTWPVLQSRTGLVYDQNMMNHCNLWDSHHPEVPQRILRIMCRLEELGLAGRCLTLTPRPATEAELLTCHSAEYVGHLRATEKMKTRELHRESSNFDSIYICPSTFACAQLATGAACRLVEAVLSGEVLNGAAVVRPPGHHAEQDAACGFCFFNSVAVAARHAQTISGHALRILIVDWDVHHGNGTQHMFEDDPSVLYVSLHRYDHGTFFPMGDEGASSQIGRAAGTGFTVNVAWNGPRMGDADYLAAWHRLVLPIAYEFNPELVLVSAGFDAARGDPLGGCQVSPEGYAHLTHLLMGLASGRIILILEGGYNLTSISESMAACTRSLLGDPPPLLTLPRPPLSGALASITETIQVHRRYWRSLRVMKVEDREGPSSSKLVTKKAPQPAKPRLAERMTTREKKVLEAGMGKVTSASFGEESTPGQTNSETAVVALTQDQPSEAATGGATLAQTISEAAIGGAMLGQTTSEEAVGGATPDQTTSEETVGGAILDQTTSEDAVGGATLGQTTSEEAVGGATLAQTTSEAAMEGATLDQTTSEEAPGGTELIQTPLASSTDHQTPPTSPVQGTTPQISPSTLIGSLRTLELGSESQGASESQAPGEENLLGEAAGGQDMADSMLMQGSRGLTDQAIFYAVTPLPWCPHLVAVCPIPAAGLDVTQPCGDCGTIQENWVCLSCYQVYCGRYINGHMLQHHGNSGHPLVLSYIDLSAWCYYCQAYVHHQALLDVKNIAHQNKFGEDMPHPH

T1 sequence (O15379 whole entry): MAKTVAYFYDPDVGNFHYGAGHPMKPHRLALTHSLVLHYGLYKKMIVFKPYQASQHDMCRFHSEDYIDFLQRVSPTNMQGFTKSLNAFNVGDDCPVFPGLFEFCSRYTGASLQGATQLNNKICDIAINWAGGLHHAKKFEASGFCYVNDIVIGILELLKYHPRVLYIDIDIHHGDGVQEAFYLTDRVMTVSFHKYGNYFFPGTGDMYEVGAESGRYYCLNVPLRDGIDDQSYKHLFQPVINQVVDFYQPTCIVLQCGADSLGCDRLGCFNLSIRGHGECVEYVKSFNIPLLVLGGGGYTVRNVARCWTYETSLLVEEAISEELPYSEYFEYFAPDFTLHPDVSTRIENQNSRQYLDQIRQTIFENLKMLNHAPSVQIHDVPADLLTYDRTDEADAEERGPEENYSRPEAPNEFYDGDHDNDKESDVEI
T1 sequence (Q9Y618 1-899 partner limits assumed): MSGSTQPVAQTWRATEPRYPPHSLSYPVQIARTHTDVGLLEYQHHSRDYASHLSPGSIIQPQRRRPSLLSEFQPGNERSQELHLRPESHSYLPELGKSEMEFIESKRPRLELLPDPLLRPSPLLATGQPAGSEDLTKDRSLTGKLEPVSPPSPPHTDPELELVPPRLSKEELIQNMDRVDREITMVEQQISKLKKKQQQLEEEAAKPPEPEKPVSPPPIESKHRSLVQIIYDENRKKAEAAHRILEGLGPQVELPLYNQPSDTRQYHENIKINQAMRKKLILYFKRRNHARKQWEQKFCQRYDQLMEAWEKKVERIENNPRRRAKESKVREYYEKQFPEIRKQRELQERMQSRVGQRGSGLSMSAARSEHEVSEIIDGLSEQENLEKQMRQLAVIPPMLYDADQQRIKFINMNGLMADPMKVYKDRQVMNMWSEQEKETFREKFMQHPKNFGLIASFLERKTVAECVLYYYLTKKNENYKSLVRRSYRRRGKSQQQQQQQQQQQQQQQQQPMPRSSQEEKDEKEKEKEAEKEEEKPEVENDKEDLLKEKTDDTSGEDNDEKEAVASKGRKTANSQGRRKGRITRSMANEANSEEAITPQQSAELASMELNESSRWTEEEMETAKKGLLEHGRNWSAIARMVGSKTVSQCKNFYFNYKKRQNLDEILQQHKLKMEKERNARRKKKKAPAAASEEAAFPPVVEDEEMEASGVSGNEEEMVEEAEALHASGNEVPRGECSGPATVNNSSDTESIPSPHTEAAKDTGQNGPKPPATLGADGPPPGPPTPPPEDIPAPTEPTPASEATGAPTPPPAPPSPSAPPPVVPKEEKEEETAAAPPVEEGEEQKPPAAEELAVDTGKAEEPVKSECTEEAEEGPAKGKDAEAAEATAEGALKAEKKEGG

| SMILES | IC50 [1] [nM] | IC50 [2] [nM] |
| --- | --- | --- |
| CCC(=O)CCCCCC(CC)(NC(=O)[C@H]1CC12CCN(CC1CC1)CC2)c1nc(-c2cc3ccc(C)nc3cc2OC)c[nH]1 (stereo partly drawn) [Compound 420, (1S)-6-(cyclopropylmethyl)-N-{3-[4-(7-methoxy-2-methylquinolin-6-yl)-1H-imidazol-2-yl]-9-oxoundecan-3-yl}-6-azaspiro[2.5]octane-1-carboxamide] | 328 | > 900 |
| CCC(=O)CCCCC[C@H](NC(=O)[C@H]1CC12CCN(CC1CC1)CC2)c1ncc(-c2cc3ccc(C)nc3cc2OC)o1 [Compound 422] | 0.08 | 113 |
| CCCC(=O)CCCCC[C@H](N)c1ncc(-c2cc3ccc(C)nc3cc2OC)[nH]1 [Compound A30] | 95.6 | > 900 |
